Among the data in ChEMBL document CHEMBL1671621, “Efficient clearance of Aspergillus fumigatus in murine lungs by an ultrashort antimicrobial lipopeptide, palmitoyl-lys-ala-DAla-lys” (Antimicrob Agents Chemother, 2008) are MIC, hemolysis and Activity values, retold here.

Converted amounts (≈) assume the structure as drawn. The source made the active and inactive calls. The rule behind the calls is not given here. Where a SMILES comes first, the peptide text is derived from it. [ ]: non-standard residue; d: D form. The star is where a group is joined. Palmitoyl = CCCCCCCCCCCCCCCC(=O)*; Lauroyl = CCCCCCCCCCCC(=O)*

By MIC is commonly meant the least concentration at which growth counts as inhibited.

In series [1] the test system is Aspergillus fumigatus. Nature of the series: Antifungal activity against Aspergillus fumigatus CBS 144.89 by CLSI […] method. The format is functional.
A short description of series [2]: Toxicity in human RBC assessed as hemolysis at 20 uM. The format is cell-based, Erythrocyte. As to conditions: red blood cells (RBC), read-out: Activity.
Series [3] in a line: Toxicity in human RBC assessed as hemolysis at 50 uM. The format is cell-based, Erythrocyte. The following applies: red blood cells (RBC), read-out: Activity.
Series [4] concerns Aspergillus fumigatus. Nature of the series: Antifungal activity against DsRed-labeled Aspergillus fumigatus CBS 144.89 infected in immunocompromized C57BL/6 mouse assessed fungal hyphae degradation in lung at 4.5 mg/kg qd administered intratracheally for 4 days relative to untreated control. On the set-up: dose 4.5 mg/kg. The format is functional, organism-based.
Series [5] relates to Aspergillus fumigatus. Nature of the series: Antifungal activity against DsRed-labeled Aspergillus fumigatus CBS 144.89 infected in immunocompromized C57BL/6 mouse assessed fungal hyphae degradation in lung at 1 mg/kg qd administered intratracheally for 4 days relative to untreated control. The format is functional, organism-based. The arrangement: dose 1 mg/kg.
Series [6] has as its system Mus musculus. Nature of the series: Toxicity in immunosuppressed C57BL/6 mouse assessed as macrophage infiltration in the airways at 1 to 4.5 mg/kg administered intratracheally on days 1, 4, 7 and 11 one day post infection. As to conditions: in vivo, inhaled_or_intranasal. The format is organism-based. The arrangement: dose 1-4.5 mg/kg, route endotracheal.
Series [7] deals with Mus musculus. Nature of the series: Toxicity in immunosuppressed C57BL/6 mouse assessed as vasculitis at 1 to 4.5 mg/kg administered intratracheally on days 1, 4, 7 and 11 one day post infection. The format is organism-based. The following applies: in vivo, inhaled_or_intranasal. The arrangement: dose 1-4.5 mg/kg, route endotracheal.
In series [8] the test system is Mus musculus. Nature of the series: Toxicity in immunosuppressed C57BL/6 mouse assessed as edema at 1 to 4.5 mg/kg administered intratracheally on days 1, 4, 7 and 11 one day post infection. The format is organism-based. On the set-up: dose 1-4.5 mg/kg, route endotracheal. The following applies: in vivo, inhaled_or_intranasal.
The subject of series [9] is Mus musculus. Nature of the series: Toxicity to immunosuppressed C57BL/6 mouse assessed as airway infiltration of neutrophils at 1 to 4.5 mg/kg administered intratracheally on days 1, 4, 7 and 11 one day post infection. The format is organism-based. The arrangement: dose 1-4.5 mg/kg, route endotracheal. As to conditions: in vivo, inhaled_or_intranasal.
Series [10] concerns Mus musculus. Nature of the series: Toxicity in immunosuppressed C57BL/6 mouse assessed as blood vessel formation at 1 to 4.5 mg/kg administered intratracheally on days 1, 4, 7 and 11 one day post infection. The format is organism-based. The arrangement: dose 1-4.5 mg/kg, route endotracheal. As to conditions: in vivo, inhaled_or_intranasal.
Series [11] deals with Mus musculus. Nature of the series: Toxicity in immunosuppressed C57BL/6 mouse assessed as hemorrhages at 1 to 4.5 mg/kg administered intratracheally on days 1, 4, 7 and 11 one day post infection. The format is organism-based. The arrangement: dose 1-4.5 mg/kg, route endotracheal. The following applies: in vivo, inhaled_or_intranasal.
Series [12] deals with Aspergillus fumigatus. Nature of the series: Antifungal activity against Aspergillus fumigatus CBS 144.89 infected in immunosuppressed wild-type C57BL/6 mouse assessed as increase in survival rate at 1 mg/kg administered intratracheally as single dose one day postinfection measured after 14 days relative to untreated control. The format is functional, organism-based. The arrangement: dose 1 mg/kg.

Series [13] relates to Aspergillus fumigatus. Nature of the series: Antifungal activity against Aspergillus fumigatus CBS 144.89 infected in immunosuppressed wild-type C57BL/6 mouse assessed as increase in survival rate at 1 mg/kg administered intratracheally for 4 days from the day of infection measured after 14 days relative to untreated control. The arrangement: dose 1 mg/kg. The format is functional, organism-based.

Series [14] has as its system Aspergillus fumigatus. Nature of the series: Antifungal activity against DsRed-labeled Aspergillus fumigatus CBS 144.89 infected in transgenic C57BL/6 Cx3cr1 gfp/+ mouse assessed as macrophages phygocytosed-fungal conidia at 4.5 mg/kg qd administered intratracheally for 4 days relative to untreated control. The format is functional, organism-based. On the set-up: dose 4.5 mg/kg.

The test system of series [15] is Aspergillus fumigatus. Nature of the series: Antifungal activity against Aspergillus fumigatus CBS 144.89 infected in immunosuppressed wild-type C57BL/6 mouse assessed as increase in survival rate at 4.5 mg/kg administered intratracheally as single dose one day postinfection measured after 14 days relative to untreated control. On the set-up: dose 4.5 mg/kg. The format is functional, organism-based.

The test system of series [16] is Aspergillus fumigatus. Nature of the series: Antifungal activity against Aspergillus fumigatus CBS 144.89 infected in immunosuppressed wild-type C57BL/6 mouse assessed as increase in survival rate at 4.5 mg/kg administered intratracheally for 4 days from the day of infection measured after 14 days relative to untreated control. The format is functional, organism-based. The arrangement: dose 4.5 mg/kg.

Series [17] relates to Aspergillus fumigatus. Nature of the series: Antifungal activity against Aspergillus fumigatus CBS 144.89 infected in immunosuppressed wild-type C57BL/6 mouse assessed as clearance of fungal forms in lung at 4.5 mg/kg administered intratracheally on days 1, 4, 7 and 11 one day post infection measured after 21 days relative to untreated control. The format is functional, organism-based. On the set-up: dose 4.5 mg/kg.

In series [18] the test system is Mus musculus. Nature of the series: Toxicity in immunosuppressed C57BL/6 mouse assessed as mild multifocal interstitial plasmacytic infiltration at 4.5 mg/kg administered intratracheally on days 1, 4, 7 and 11 one day post infection. The format is organism-based. The arrangement: dose 4.5 mg/kg, route endotracheal. As to conditions: in vivo, inhaled_or_intranasal.

Series [19] relates to Mus musculus. Nature of the series: Toxicity in immunosuppressed C57BL/6 mouse assessed as mild multifocal interstitial plasmacytic infiltration at 1 mg/kg administered intratracheally on days 1, 4, 7 and 11 one day post infection. The format is organism-based. On the set-up: dose 1 mg/kg, route endotracheal. The following applies: in vivo, inhaled_or_intranasal.
The subject of series [20] is Aspergillus fumigatus. Nature of the series: Antifungal activity against Aspergillus fumigatus CBS 144.89 infected in immunosuppressed wild-type C57BL/6 mouse assessed as recovery from infection at 4.5 mg/kg administered intratracheally on days 1, 4, 7 and 11 one day post infection measured after 21 days relative to untreated control. The format is functional. As to conditions: route endotracheal.

In series [21] the test system is Aspergillus fumigatus. Nature of the series: Antifungal activity against Aspergillus fumigatus CBS 144.89 infected in immunosuppressed wild-type C57BL/6 mouse assessed as increase in survival rate at 4.5 mg/kg administered intratracheally on days 1, 4, 7 and 11 one day post infection measured after 21 days relative to untreated control. The format is functional, organism-based. On the set-up: dose 4.5 mg/kg.

Series [22] concerns Aspergillus fumigatus. Nature of the series: Antifungal activity against DsRed-labeled Aspergillus fumigatus CBS 144.89 infected in transgenic C57BL/6 Cx3cr1 gfp/+mouse assessed as decrease in residual fungal spore colocalized with macrophage and dendritic cell at 4.5 mg/kg qd administered intratracheally for 4 days relative to untreated control. The format is functional, organism-based. The arrangement: dose 4.5 mg/kg.

Series [23] concerns Aspergillus fumigatus. Nature of the series: Antifungal activity against DsRed-labeled Aspergillus fumigatus CBS 144.89 infected in immunocompromized mouse assessed as macrophages phygocytosed-fungal conidia at 4.5 mg/kg qd administered intratracheally for 4 days relative to untreated control. The format is functional, organism-based. On the set-up: dose 4.5 mg/kg.
The subject of series [24] is Aspergillus fumigatus. Nature of the series: Antifungal activity against DsRed-labeled Aspergillus fumigatus CBS 144.89 infected in immunocompromized mouse assessed as decrease in residual fungal spore colocalized with macrophage and dendritic cell at 4.5 mg/kg qd administered intratracheally for 4 days relative to untreated control. The format is functional, organism-based. On the set-up: dose 4.5 mg/kg.

With `CCCCCCCCCCCC(=O)N[C@@H](CC(=O)O)C(=O)N[C@@H](CC(C)C)C(=O)N[C@@H](CCCCN)C(=O)N[C@@H](CCCCN)C(=O)N[C@@H](CC(C)C)C(=O)N[C@@H](CC(C)C)C(=O)N[C@@H](CCCCN)C(=O)N[C@@H](CCCCN)C(=O)N[C@@H](CC(C)C)C(=O)N[C@@H](CC(C)C)C(=O)N[C@@H](CCCCN)C(=O)N[C@@H](CCCCN)C(=O)N[C@@H](CC(C)C)C(=O)O` (Lauroyl-DLKKLLKKLLKKL-OH), the MIC against Aspergillus fumigatus [1] was 20.8 µg/mL (≈ 11.8 µM). Besides, the hemolysis at 20 µM in [2] was found to be 0%. The hemolysis at 50 µM in [3] amounted to 0%. The result with Aspergillus fumigatus [4] was Active.
On to `CCCCCCCCCCCCCCCC(=O)N[C@@H](CCCCN)C(=O)N[C@@H](CCCCN)C(=O)N[C@H](CCCCN)C(=O)N[C@@H](CCCCN)C(=O)O` (Palmitoyl-KK[dK]K-OH), for which the MIC in the series with Aspergillus fumigatus [1] came out at 38.4 µg/mL (≈ 49.9 µM). Moreover, the hemolysis at 20 µM in series [2] came out at 0%. Also, the hemolysis at 50 µM in [3] came out at 6%.
Take `CCCCCCCCCCCCCC(=O)N[C@@H](CCCCN)C(=O)N[C@@H](CC(C)C)C(=O)N[C@H](CC(C)C)C(=O)N[C@@H](CCCCN)C(=O)O`: in the series with Aspergillus fumigatus [1], the MIC was found to be 9 µg/mL (≈ 12.7 µM). Also, in [2], the hemolysis at 20 µM came out at 13%. In series [3], the hemolysis at 50 µM worked out at 50%.
The matching figures for `CCCCCCCCCCCCCCCC(=O)N[C@@H](CCCCN)C(=O)N[C@@H](CC(C)C)C(=O)N[C@H](CC(C)C)C(=O)N[C@@H](CCCCN)C(=O)O`: 2 µg/mL (≈ 2.71 µM), 9% and 45%.
In the series on Aspergillus fumigatus [1], `C[C@@H]1[C@H](O)[C@@H](C)/C=C/C=C/C=C/C=C/C=C/C=C/C=C/[C@H](O[C@@H]2O[C@H](C)[C@@H](O)[C@H](N)[C@@H]2O)C[C@@H]2O[C@](O)(C[C@@H](O)C[C@@H](O)[C@H](O)CC[C@@H](O)C[C@@H](O)CC(=O)O[C@H]1C)C[C@H](O)[C@H]2C(=O)O` [AMPHOTERICIN B] returned an MIC of 11.5 µg/mL (≈ 12.4 µM). The outcome with Aspergillus fumigatus [5], with Aspergillus fumigatus [12] and in the series on Aspergillus fumigatus [13] was inactive. The Activity entry in the series on Mus musculus [6], in the series on Mus musculus [7], in the series with Mus musculus [8], in the series on Mus musculus [9], with Mus musculus [10] and with Mus musculus [11] was “Toxic” throughout.
Compound `CCCCCCCCCCCCCCCC(=O)N[C@@H](CCCCN)C(=O)N[C@@H](C)C(=O)N[C@H](C)C(=O)N[C@@H](CCCCN)C(=O)O` (Palmitoyl-KA[dA]K-OH) returned a minimal inhibitory concentration (MIC) in the series with Aspergillus fumigatus [1] of 8 µg/mL (≈ 12.2 µM). Also, in series [2], the hemolysis at 20 µM stood at 0%. Further, in [3], the hemolysis at 50 µM was 3%. The result in the series with Aspergillus fumigatus [4], in the series on Aspergillus fumigatus [14], in the series on Aspergillus fumigatus [15], in the series on Aspergillus fumigatus [16], with Aspergillus fumigatus [17] and with Aspergillus fumigatus [21] was Active. The outcome with Aspergillus fumigatus [22], in the series with Aspergillus fumigatus [23] and in the series with Aspergillus fumigatus [24] was Active. Also, the Activity entry was “Toxic” in the series with Mus musculus [18], “Toxic” in the series on Mus musculus [19] and 25% in the series with Aspergillus fumigatus [20].
With `CCCCCCCCCCCC(=O)N[C@@H](CCCCN)C(=O)N[C@@H](CC(C)C)C(=O)N[C@H](CC(C)C)C(=O)N[C@@H](CCCCN)C(=O)O` (Lauroyl-KL[dL]K-OH), the minimal inhibitory concentration (MIC) in the series with Aspergillus fumigatus [1] was 34 µg/mL (≈ 49.8 µM). For the same compound, in [2], the hemolysis at 20 µM worked out at 0%. Moreover, in series [3], the hemolysis at 50 µM amounted to 0%.
